What all share (format): in vivo
Series [1] relates to Beet Armyworm (Spodoptera exigua, LAPHEG). The experiment in a line: Bioassays on Beet Armyworm (BAW), 128-well diet tray assay. Conditions: Spodoptera exigua. Put shortly: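 Second-instar larvae, one to five per well, were placed on artificial diet surface-treated with 50 μg/cm^2 compound in 90:10 acetone-water, eight wells per treatment. Trays were held 5–7 days at 25 °C, 14:10 light-dark. Percent mortality per well was averaged over eight wells.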

The subject of series [2] is Cabbage Looper (Trichoplusia ni, TRIPNI). The experiment in a line: Bioassays on Cabbage Looper (CL), 128-well diet tray assay. To be noted: Trichoplusia ni. An outline of the steps: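 Second-instar larvae (1–5 per well) placed on artificial diet surface-treated with 50 μg/cm^2 test molecule applied in 90:10 acetone-water and dried. Held at 25° C., 14:10 light-dark, for five to seven days. Percent mortality scored per well and averaged over eight wells.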

The subject of series [3] is Yellow Fever Mosquito (Aedes aegypti, AEDSAE). To be noted: for YFM rating: Table ABC / ABC-DP rating. An outline of the steps: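 Rating-scale grades reflect larval mortality scored per well after 3 days at room temperature under non-evaporative lids. Larvae (~1 day old, hatched overnight in liver-powder water) were added to six daughter plates per compound, prepared from a 4000 ppm DMSO stock diluted in 90:10 water/acetone.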

Setting [4] is: Beet Armyworm, Table ABC / ABC-DP rating, read-out: BAW rating.
[5] abbreviates: Cabbage Looper, Table ABC / ABC-DP rating, read-out: CL rating.
Where [6] appears, read: Table ABC: Biological Results, species BAW, read-out: BAW.
Setting [7] is: Table ABC: Biological Results, species CL, read-out: CL.
[8] abbreviates: Table ABC: Biological Results, species YFM.
Where [9] appears, read: Beet Armyworm, rating class, read-out: BAW.
The mark [10] stands for this setting: Cabbage Looper, rating class, read-out: CL.
[11] abbreviates: Yellow Fever Mosquito, rating class.

Where two headings read alike, the source gives them in different places.

Data on 16 compounds can be found in patent publication US20250228239A1, “MOLECULES HAVING PESTICIDAL UTILITY, AND INTERMEDIATES, COMPOSITIONS, AND PROCESSES, RELATED THERETO” (priority 2024, published 2025).

Consider `COc1ccc(NNC(=O)c2cc(NC(=O)[C@H]3[C@H](c4cc(Cl)cc(Cl)c4)C3(Cl)Cl)ccc2Cl)cc1` (relative stereo) [F2563, trans-2,2-Dichloro-N-(4-chloro-3-(2-(4-methoxyphenyl)hydrazine-1-carbonyl)phenyl)-3-(3,5-dichlorophenyl)cyclopropane-1-carboxamide], for which the mortality (usually the share of the test organisms that died) at 50 µg/cm2 in series [1] (168 h, second instar larvae, 50 μg/cm^2 of test molecule on artificial diet, 25° C., five to seven days, average of eight wells, read-out: BAW % Control (or Mortality) rating) was in the range of 50 to 100%; in series [2] (168 h, second instar larvae, 50 μg/cm^2 of test molecule on artificial diet, 25° C., five to seven days, average of eight wells, read-out: CL % Control (or Mortality) rating) it was 50 to 100%. The pest or weed control at 50 µg/cm2 in series [1] (setting [4]) and in series [2] (setting [5]) was 50 to 100% in each case. Also, the YFM rating result in series [3] (Yellow Fever Mosquito) was “B (More than 0 – Less than 80)”. The “YFM % Control (or Mortality) rating” value in series [3] (about 1 day-old larvae, 4000 ppm master solution diluted with 90:10 water/acetone, 15 μL per well plus 220 μL larval mixture, 3 days, mortality) is recorded as “B (More than 0 – Less than 80)”.
As for `O=C(COC(F)(F)F)Nc1c(F)ccc(NC(=O)c2cc(NC(=O)[C@H]3[C@H](c4ccc(F)c(Br)c4)C3(Cl)Cl)ccc2Cl)c1F` [F1780, 5-((1R,3R)-3-(3-Bromo-4-fluorophenyl)-2,2-dichlorocyclopropane-1-carboxamido)-2-chloro-N-(2,4-difluoro-3-(2-(trifluoromethoxy)acetamido)phenyl)benzamide], the pest or weed control at 50 µg/cm2 in series [1] (setting [4]) and in series [2] (setting [5]) was 50 to 100% each time. Further, in series [3] (Yellow Fever Mosquito), the YFM rating entry is listed as “A (80–100)”.
For `O=C(COC(F)(F)F)Nc1c(F)ccc(NC(=O)c2cc(NC(=O)[C@H]3[C@H](c4ccc(F)c(Cl)c4)C3(Cl)Cl)ccc2Cl)c1F` [F1768, 2-Chloro-5-((1R,3R)-2,2-dichloro-3-(3-chloro-4-fluorophenyl)cyclopropane-1-carboxamido)-N-(2,4-difluoro-3-(2-(trifluoromethoxy)acetamido)phenyl)benzamide], the pest or weed control at 50 µg/cm2 in series [1] (setting [4]) and in series [2] (setting [5]) was 50 to 100% each time. Also, the YFM rating result in series [3] (Yellow Fever Mosquito) is “A (80–100)”.
Regarding `CC(=O)Nc1ccc(NC(=O)c2cc(NC(=O)[C@H]3[C@H](c4ccc(F)c(Cl)c4)C3(Cl)Cl)cc(C(F)(F)F)c2Cl)cc1` (relative stereo) [F1216, trans-N-(4-Acetamidophenyl)-2-chloro-5-(2,2-dichloro-3-(3-chloro-4-fluorophenyl)cyclopropane-1-carboxamido)-3-(trifluoromethyl)benzamide], the pest or weed control at 50 µg/cm2 in series [1] (setting [6]) and in series [2] (setting [7]) was 50 to 100% in each case. The YFM entry in series [3] (setting [8]) was “A (80–100)”.
Turning to `O=C(Nc1ccc(F)c(NCCF)c1F)c1cc(NC(=O)[C@H]2[C@H](c3ccc(F)c(C(F)(F)F)c3)C2(Cl)Cl)ccc1Cl` [F1826, 2-Chloro-5-((1R,3R)-2,2-dichloro-3-(4-fluoro-3-(trifluoromethyl)phenyl)cyclopropane-1-carboxamido)-N-(2,4-difluoro-3-((2-fluoroethyl)amino)phenyl)benzamide], the pest or weed control at 50 µg/cm2 in series [1] (setting [4]) and in series [2] (setting [5]) was 50 to 100% in each case. Moreover, the YFM rating result in series [3] (Yellow Fever Mosquito) is given as “A (80–100)”.
Turning to `O=C(CCCNC(=O)c1cc(NC(=O)[C@H]2[C@H](c3cc(Cl)cc(Cl)c3)C2(Cl)Cl)ccc1Cl)NCCC(F)(F)F` (relative stereo) [F2093, trans-2-Chloro-5-(2,2-dichloro-3-(3,5-dichlorophenyl)cyclopropanecarboxamido)-N-(4-oxo-4-(3,3,3-trifluoropropylamino)butyl)benzamide], the pest or weed control at 50 µg/cm2 in series [1] (setting [4]) and in series [2] (setting [5]) was 50 to 100% in each case. Besides, the YFM rating result in series [3] (Yellow Fever Mosquito) is given as “B (More than 0 – Less than 80)”.
For `CN(NCCC(F)(F)F)C(=O)c1cc(NC(=O)[C@H]2[C@H](c3cc(Cl)cc(Cl)c3)C2(Cl)Cl)ccc1Cl` (relative stereo) [F2552, trans-2,2-Dichloro-N-(4-chloro-3-(1-methyl-2-(3,3,3-trifluoropropyl)hydrazine-1-carbonyl)phenyl)-3-(3,5-dichlorophenyl)cyclopropane-1-carboxamide], the pest or weed control at 50 µg/cm2 in series [1] (setting [4]) and in series [2] (setting [5]) was 50 to 100% in each case. Further, the YFM rating result in series [3] (Yellow Fever Mosquito) is “A (80–100)”.
On to `O=C(Nc1ccc(F)c(NC(=O)C(F)F)c1F)c1cc(NC(=O)[C@H]2[C@H](c3ccc(F)c(C(F)(F)F)c3)C2(Cl)Cl)ccc1Cl` [F1175, 2-Chloro-5-((1R,3R)-2,2-dichloro-3-(4-fluoro-3-(trifluoromethyl)phenyl)cyclopropane-1-carboxamido)-N-(3-(2,2-difluoroacetamido)-2,4-difluorophenyl)benzamide], for which the pest or weed control at 50 µg/cm2 in series [1] (setting [6]) and in series [2] (setting [7]) was 50 to 100% throughout. Besides, the YFM result in series [3] (setting [8]) is recorded as “A (80–100)”.
Turning to `CC(C)(C)OC(=O)Nc1c(F)ccc(NC(=O)c2cc(NC(=O)[C@@H]3[C@@H](c4ccc(F)c(C(F)(F)F)c4)C3(Cl)Cl)ccc2Cl)c1F` [F1074, tert-Butyl-(3-(2-chloro-5-((1S,3S)-2,2-dichloro-3-(4-fluoro-3-(trifluoromethyl)phenyl)cyclopropane-1-carboxamido)benzamido)-2,6-difluorophenyl)carbamate], the pest or weed control at 50 µg/cm2 in series [1] (setting [6]) and in series [2] (setting [7]) was 50 to 100% throughout. In addition, the YFM entry in series [3] (setting [8]) is reported as “A (80–100)”.
Regarding `O=C(Nc1ccc(F)c(NC(=O)C(F)(F)F)c1)c1cc(NC(=O)[C@H]2[C@H](c3ccc(F)c(Cl)c3)C2(Cl)Cl)ccc1Cl` [F1814, 2-Chloro-5-((1R,3R)-2,2-dichloro-3-(3-chloro-4-fluorophenyl)cyclopropane-1-carboxamido)-N-(4-fluoro-3-(2,2,2-trifluoroacetamido)phenyl)benzamide], the pest or weed control at 50 µg/cm2 in series [1] (setting [4]) and in series [2] (setting [5]) was 50 to 100% each time. In addition, the YFM rating result in series [3] (Yellow Fever Mosquito) is recorded as “A (80–100)”.
Consider `O=C(Nc1ccc(NC(=O)C(F)(F)F)c(Cl)c1)c1cc(NC(=O)[C@H]2[C@H](c3ccc(F)c(Cl)c3)C2(Cl)Cl)ccc1Cl` (relative stereo) [F1384, trans-2-Chloro-N-(3-chloro-4-(2,2,2-trifluoroacetamido)phenyl)-5-(2,2-dichloro-3-(3-chloro-4-fluorophenyl)cyclopropane-1-carboxamido)benzamide], for which the pest or weed control at 50 µg/cm2 in series [1] (setting [6]) and in series [2] (setting [7]) was 50 to 100% throughout. Moreover, the YFM entry in series [3] (setting [8]) is “A (80–100)”.
As for `Nc1ccc(NC(=O)c2cc(NC(=O)[C@H]3[C@H](c4ccc(F)c(Cl)c4)C3(Cl)Cl)ccc2Cl)cc1C(F)(F)F` (relative stereo) [F1390, trans-N-(4-Amino-3-(trifluoromethyl)phenyl)-2-chloro-5-(2,2-dichloro-3-(3-chloro-4-fluorophenyl)cyclopropane-1-carboxamido)benzamide], the pest or weed control at 50 µg/cm2 in series [1] (setting [6]) and in series [2] (setting [7]) was 50 to 100% throughout. The YFM entry in series [3] (setting [8]) is “A (80–100)”.
`COCC(C)NNC(=O)c1cc(NC(=O)[C@H]2[C@H](c3cc(Cl)cc(Cl)c3)C2(Cl)Cl)ccc1Cl` (relative stereo) [F2551, trans-2,2-Dichloro-N-(4-chloro-3-(2-(1-methoxypropan-2-yl)hydrazine-1-carbonyl)phenyl)-3-(3,5-dichlorophenyl)cyclopropane-1-carboxamide]: the pest or weed control at 50 µg/cm2 in series [1] (setting [4]) and in series [2] (setting [5]) was 50 to 100% in each case. In addition, in series [3] (Yellow Fever Mosquito), the YFM rating result is listed as “A (80–100)”.
In the case of `O=C(Nc1ccc(F)c(NC(=O)C(F)F)c1F)c1cc(NC(=O)[C@H]2[C@H](c3cc(Cl)c(Cl)c(Cl)c3)C2(Cl)Cl)cc(F)c1F` [F1437, 5-((1R,3R)-2,2-Dichloro-3-(3,4,5-trichlorophenyl)cyclopropane-1-carboxamido)-N-(3-(2,2-difluoroacetamido)-2,4-difluorophenyl)-2,3-difluorobenzamide], the pest or weed control at 50 µg/cm2 in series [1] (setting [9]) and in series [2] (setting [10]) was 50 to 100% each time. Moreover, the YFM result in series [3] (setting [11]) is given as “A (80–100)”.
Turning to `O=C(Nc1c(F)ccc(NC(=O)C(F)F)c1F)c1cc(NC(=O)[C@H]2[C@H](c3cc(Cl)c(Cl)c(Cl)c3)C2(Cl)Cl)ccc1F` [F1555, 5-((1R,3R)-2,2-Dichloro-3-(3,4,5-trichlorophenyl)cyclopropane-1-carboxamido)-N-(3-(2,2-difluoroacetamido)-2,6-difluorophenyl)-2-fluorobenzamide], the pest or weed control at 50 µg/cm2 in series [1] (setting [9]) and in series [2] (setting [10]) was 50 to 100% each time. Further, the YFM entry in series [3] (setting [11]) is given as “A (80–100)”.
For the compound `O=C(Nc1ccc(F)cc1F)c1cc(NC(=O)[C@H]2[C@H](c3cc(F)c(Cl)c(Cl)c3)C2(Cl)Cl)ccc1Cl` (relative stereo) [F1024, trans-2-Chloro-5-(2,2-dichloro-3-(3,4-dichloro-5-fluorophenyl)cyclopropane-1-carboxamido)-N-(2,4-difluorophenyl)benzamide], the pest or weed control at 50 µg/cm2 in series [1] (setting [6]) and in series [2] (setting [7]) was 50 to 100% throughout. Also, the YFM result in series [3] (setting [8]) is on record as “A (80–100)”.
